Data published in US8512940B2, “Method for preserving liver in a solution comprising dibutyryl cAMP” (Otsuka Pharmaceutical Factory, Inc., priority 2005, dated 2013).

System: liver grafts
Format: in vivo
Conditions: content in ET-K+db-cAMP (2 mM) preservation solution, liver transplanted without final rinsing
Protocol: Eight-week-old inbred male Lewis rat (SLC) was housed in a chip-bedded cage at room temperature under a 12 hr light/dark cycle and given free access to a standard chow diet and water before operation.
Group I: UW solution group (n=8), Group II: New ET-K solution group (n=6), Group III: modified New ET-K solution group (n=8). The liver was preserved under cooling in each preservation solution for 24 hr, and then syngeneic liver transplantation was performed. Rats were randomly assigned to each group.
In the UW group, the blood in the donor liver portal vein blood vessel was first replaced with 10 ml of Ringer's solution, and then the blood vessel was perfused with 10 ml of UW solution. In the New ET-K group and the modified New ET-K group, the blood in the donor liver portal vein blood vessel was directly replaced with 20 ml of each preservation solution. In all groups, the perfusion with the preservation solution was performed at a pressure of 15 cmH2O. Then, liver grafts were preserved in respective preservation solutions at 4° C. for 24 hr. […]
In the same manner as in Example 1, syngenic liver transplantation was performed on 8-week-old inbred male Lewis rats (SLC), and the survival rate after transplantation of the liver preserved in preservation solutions containing various concentrations of nitroglycerin (NTG) was evaluated. […]

O=[N+]([O-])OCC(CO[N+](=O)[O-])O[N+](=O)[O-] [nitroglycerin]
nitroglycerin content at which toxicity due to nitroglycerin is hardly expressed: not more than 0.0044 mM
